This passage reports remaining activity and inhibition results from PMC5761851, “Application of a phenotypic drug discovery strategy to identify biological and chemical starting points for inhibition of TSLP production in lung epithelial cells” (PLoS ONE, 2018).

Usually inhibition stands for the percentage by which the read-out fell short of the control.

Test in all cases: kinase selectivity panel
What all share (format): biochemical

The target in one experiment is T1, JNK1α1 (Homo sapiens, UniProt P45983).
T1 construct: purchased Eurofins Pharma Discovery Services (KinaseProfiler; Cerep BioPrint panel)
T1 sequence (P45983 1-384 isoform P45983-2): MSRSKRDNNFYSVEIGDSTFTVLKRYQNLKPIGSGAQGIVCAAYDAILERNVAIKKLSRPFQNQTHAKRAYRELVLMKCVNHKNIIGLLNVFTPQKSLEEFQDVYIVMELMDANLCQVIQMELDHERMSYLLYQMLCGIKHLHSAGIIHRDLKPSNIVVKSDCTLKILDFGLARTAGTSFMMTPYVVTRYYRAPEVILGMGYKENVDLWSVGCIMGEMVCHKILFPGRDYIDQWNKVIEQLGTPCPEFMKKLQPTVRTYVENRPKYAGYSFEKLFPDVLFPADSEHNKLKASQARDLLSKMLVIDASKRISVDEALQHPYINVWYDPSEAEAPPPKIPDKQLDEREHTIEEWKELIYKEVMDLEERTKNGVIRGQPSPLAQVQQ
Particulars: read-out: percentage of control activity (POC), JNK1α1. The gist of the method: (§1)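 IC50 values derive from 9 duplicate concentrations, run only for activities picked after an initial 10 μM duplicate screen across 125 representative kinases.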

The target of the next experiment is T2, MLK1 (Homo sapiens, UniProt P80192).
T2 construct: purchased Eurofins Pharma Discovery Services (KinaseProfiler; Cerep BioPrint panel)
T2 sequence (P80192 whole entry): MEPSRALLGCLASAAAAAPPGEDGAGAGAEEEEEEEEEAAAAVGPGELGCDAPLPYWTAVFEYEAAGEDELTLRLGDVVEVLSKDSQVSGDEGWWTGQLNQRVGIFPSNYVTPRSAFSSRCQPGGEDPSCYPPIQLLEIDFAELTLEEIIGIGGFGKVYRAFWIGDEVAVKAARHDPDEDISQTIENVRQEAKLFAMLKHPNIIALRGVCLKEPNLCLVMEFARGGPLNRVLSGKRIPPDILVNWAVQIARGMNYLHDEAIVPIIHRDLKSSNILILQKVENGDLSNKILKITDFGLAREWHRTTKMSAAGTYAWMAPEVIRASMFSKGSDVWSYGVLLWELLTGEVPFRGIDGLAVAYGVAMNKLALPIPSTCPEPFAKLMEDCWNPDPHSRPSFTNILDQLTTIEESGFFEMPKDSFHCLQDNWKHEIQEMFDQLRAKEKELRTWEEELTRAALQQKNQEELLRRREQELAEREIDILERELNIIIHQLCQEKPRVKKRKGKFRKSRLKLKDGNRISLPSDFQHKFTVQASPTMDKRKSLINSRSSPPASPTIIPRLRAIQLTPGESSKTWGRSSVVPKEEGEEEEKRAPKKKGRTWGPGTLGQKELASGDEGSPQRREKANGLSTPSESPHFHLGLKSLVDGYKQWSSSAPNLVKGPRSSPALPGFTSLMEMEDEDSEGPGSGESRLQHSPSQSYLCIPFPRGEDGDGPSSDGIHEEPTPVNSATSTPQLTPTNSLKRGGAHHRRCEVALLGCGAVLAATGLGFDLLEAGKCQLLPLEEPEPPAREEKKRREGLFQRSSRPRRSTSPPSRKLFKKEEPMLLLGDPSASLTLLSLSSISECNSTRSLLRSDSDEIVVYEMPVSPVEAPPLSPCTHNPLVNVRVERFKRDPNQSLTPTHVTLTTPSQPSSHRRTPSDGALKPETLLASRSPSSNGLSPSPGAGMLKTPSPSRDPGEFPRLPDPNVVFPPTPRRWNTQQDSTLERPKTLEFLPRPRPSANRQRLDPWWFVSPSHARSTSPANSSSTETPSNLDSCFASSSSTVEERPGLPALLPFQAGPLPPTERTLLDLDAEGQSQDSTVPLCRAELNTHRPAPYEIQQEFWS
Particulars: read-out: percentage of control activity (POC), MLK1. Put shortly: as §1

The next experiment has as its target T3, MEK1 (Homo sapiens, UniProt Q02750).
T3 construct: purchased Eurofins Pharma Discovery Services (KinaseProfiler; Cerep BioPrint panel)
The conditions noted are these: read-out: percentage of control activity (POC), MEK1. The gist of the method: as §1

The target of another experiment is T4, ZAP-70 (Homo sapiens, UniProt P43403).
T4 construct: purchased Eurofins Pharma Discovery Services (KinaseProfiler; Cerep BioPrint panel)
T4 sequence (P43403 1-619): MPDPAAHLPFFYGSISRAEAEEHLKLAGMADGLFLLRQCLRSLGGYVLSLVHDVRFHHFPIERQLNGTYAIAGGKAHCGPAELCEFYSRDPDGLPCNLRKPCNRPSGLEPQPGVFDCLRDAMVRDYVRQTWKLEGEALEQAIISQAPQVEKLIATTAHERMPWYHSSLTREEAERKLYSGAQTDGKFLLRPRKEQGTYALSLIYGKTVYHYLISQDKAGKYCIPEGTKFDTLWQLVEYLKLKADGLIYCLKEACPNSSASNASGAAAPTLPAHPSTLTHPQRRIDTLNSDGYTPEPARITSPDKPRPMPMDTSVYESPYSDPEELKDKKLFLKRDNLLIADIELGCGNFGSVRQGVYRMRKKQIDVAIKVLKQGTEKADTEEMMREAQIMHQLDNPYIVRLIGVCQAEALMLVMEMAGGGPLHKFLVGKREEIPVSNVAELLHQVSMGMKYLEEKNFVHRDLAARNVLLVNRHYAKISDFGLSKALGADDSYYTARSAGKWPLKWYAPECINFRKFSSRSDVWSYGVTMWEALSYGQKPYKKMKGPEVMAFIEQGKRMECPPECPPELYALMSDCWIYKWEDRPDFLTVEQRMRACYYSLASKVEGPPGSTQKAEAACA
Particulars: read-out: percentage of control activity (POC), ZAP-70. The gist of the method:
as §1

The target of a further experiment is T5, Flt1 (Homo sapiens, UniProt P17948).
T5 construct: purchased Eurofins Pharma Discovery Services (KinaseProfiler; Cerep BioPrint panel)
The conditions noted are these: read-out: percentage of control activity (POC), Flt1. Put shortly:
as §1

The target of another experiment is T6, PKCθ (Homo sapiens, UniProt Q04759).
T6 construct: purchased Eurofins Pharma Discovery Services (KinaseProfiler; Cerep BioPrint panel)
T6 sequence (Q04759 whole entry): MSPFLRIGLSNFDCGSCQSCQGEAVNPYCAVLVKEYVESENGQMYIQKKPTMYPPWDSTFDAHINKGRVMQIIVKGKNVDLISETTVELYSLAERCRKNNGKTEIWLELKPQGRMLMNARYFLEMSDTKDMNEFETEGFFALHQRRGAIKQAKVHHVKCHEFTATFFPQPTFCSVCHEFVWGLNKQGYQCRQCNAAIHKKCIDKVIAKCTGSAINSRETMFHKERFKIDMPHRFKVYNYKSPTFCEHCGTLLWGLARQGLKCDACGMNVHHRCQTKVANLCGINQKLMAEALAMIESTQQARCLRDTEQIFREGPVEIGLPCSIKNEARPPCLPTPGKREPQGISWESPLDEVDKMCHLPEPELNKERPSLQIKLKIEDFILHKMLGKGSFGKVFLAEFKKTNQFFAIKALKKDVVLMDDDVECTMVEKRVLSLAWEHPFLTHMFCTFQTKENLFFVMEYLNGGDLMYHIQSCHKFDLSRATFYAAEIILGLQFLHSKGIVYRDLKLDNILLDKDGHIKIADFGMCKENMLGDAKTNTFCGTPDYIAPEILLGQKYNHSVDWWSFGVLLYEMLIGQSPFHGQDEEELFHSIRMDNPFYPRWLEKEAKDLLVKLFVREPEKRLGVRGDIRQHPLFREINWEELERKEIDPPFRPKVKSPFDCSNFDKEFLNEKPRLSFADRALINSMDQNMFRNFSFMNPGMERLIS
Particulars: read-out: percentage of control activity (POC), PKCθ. Put shortly: as §1

A further experiment has as its target T7, CDK1/cyclinB (Homo sapiens, UniProt P06493).
T7 construct: purchased Eurofins Pharma Discovery Services (KinaseProfiler; Cerep BioPrint panel)
The conditions noted are these: read-out: percentage of control activity (POC), CDK1/cyclinB. The gist of the method: as §1

In a further experiment the target is T8, PKCβII (Homo sapiens, UniProt P05771).
T8 construct: purchased Eurofins Pharma Discovery Services (KinaseProfiler; Cerep BioPrint panel)
The conditions noted are these: read-out: percentage of control activity (POC), PKCβII. The gist of the method: as §1

The next experiment deals with T9, CHK1 (Homo sapiens, UniProt O14757).
T9 construct: purchased Eurofins Pharma Discovery Services (KinaseProfiler; Cerep BioPrint panel)
T9 sequence (O14757 1-476): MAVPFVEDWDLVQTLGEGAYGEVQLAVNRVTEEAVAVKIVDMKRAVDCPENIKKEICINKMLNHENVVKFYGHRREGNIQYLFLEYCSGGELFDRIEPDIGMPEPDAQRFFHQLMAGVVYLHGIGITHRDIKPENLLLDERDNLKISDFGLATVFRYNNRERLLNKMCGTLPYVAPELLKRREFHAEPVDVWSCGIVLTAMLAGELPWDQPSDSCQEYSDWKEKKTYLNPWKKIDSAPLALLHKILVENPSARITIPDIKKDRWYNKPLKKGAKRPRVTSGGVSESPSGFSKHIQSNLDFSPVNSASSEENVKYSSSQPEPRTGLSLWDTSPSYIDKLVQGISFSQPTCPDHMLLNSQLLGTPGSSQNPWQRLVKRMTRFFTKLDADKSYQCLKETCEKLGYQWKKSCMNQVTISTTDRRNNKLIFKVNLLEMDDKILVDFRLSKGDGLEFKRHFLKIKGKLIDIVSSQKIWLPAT
The conditions noted are these: read-out: percentage of control activity (POC), CHK1. Put shortly:
as §1

The target in another experiment is T10, CDK9/cyclin T1 (Homo sapiens, UniProt P50750).
T10 construct: purchased Eurofins Pharma Discovery Services (KinaseProfiler; Cerep BioPrint panel)
T10 sequence (P50750 whole entry): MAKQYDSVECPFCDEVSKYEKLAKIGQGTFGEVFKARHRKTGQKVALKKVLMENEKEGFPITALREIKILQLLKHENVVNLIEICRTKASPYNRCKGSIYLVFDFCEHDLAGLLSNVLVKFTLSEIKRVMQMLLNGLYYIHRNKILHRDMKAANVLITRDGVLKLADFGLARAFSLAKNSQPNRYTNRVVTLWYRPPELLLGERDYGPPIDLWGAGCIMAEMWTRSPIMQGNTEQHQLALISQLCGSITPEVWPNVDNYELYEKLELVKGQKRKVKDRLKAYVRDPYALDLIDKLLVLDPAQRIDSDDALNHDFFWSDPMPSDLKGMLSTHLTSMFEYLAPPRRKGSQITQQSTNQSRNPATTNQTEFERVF
T10 sequence (O60563 whole entry partner): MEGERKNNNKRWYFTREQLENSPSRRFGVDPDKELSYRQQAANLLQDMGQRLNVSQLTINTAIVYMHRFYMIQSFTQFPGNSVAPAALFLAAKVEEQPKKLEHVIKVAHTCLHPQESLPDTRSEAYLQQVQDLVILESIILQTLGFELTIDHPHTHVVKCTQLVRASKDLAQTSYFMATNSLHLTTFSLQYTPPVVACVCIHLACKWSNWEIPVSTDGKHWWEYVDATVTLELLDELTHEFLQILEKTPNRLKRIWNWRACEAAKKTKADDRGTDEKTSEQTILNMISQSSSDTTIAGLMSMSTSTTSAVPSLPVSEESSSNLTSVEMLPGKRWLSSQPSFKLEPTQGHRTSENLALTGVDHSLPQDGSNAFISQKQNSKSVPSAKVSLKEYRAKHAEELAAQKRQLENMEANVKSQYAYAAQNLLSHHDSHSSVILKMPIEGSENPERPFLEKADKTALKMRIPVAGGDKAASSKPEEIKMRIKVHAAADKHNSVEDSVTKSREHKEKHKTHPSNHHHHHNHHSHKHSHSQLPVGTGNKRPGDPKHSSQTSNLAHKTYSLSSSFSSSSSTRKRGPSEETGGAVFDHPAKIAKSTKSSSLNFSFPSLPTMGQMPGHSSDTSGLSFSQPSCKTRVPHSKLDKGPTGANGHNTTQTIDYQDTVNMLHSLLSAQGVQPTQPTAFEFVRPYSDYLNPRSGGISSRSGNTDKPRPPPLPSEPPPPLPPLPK
Particulars: read-out: percentage of control activity (POC), CDK9/cyclin T1. The gist of the method:
as §1

Another experiment concerns the target T11, MKK6 (Homo sapiens, UniProt P52564).
T11 construct: purchased Eurofins Pharma Discovery Services (KinaseProfiler; Cerep BioPrint panel)
T11 sequence (P52564 1-334): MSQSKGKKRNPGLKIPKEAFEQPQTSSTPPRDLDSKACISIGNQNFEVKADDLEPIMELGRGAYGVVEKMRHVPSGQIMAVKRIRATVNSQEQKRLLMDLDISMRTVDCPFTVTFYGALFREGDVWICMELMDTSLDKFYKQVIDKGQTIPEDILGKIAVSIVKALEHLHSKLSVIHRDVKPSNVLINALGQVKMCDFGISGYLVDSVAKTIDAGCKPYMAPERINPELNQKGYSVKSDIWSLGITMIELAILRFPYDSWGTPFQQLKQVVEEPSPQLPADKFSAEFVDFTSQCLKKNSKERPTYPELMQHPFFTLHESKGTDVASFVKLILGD
The conditions noted are these: for remaining activity at 10 µM: read-out: percentage of control activity (POC), MKK6. Put shortly: as §1

Another experiment concerns the target T12, IRAK1 (Homo sapiens, UniProt P51617).
T12 construct: purchased Eurofins Pharma Discovery Services (KinaseProfiler; Cerep BioPrint panel)
Particulars: read-out: percentage of control activity (POC), IRAK1. Put shortly:
as §1

Another experiment deals with T13, Lyn (Homo sapiens, UniProt P07948).
T13 construct: purchased Eurofins Pharma Discovery Services (KinaseProfiler; Cerep BioPrint panel)
T13 sequence (P07948 whole entry): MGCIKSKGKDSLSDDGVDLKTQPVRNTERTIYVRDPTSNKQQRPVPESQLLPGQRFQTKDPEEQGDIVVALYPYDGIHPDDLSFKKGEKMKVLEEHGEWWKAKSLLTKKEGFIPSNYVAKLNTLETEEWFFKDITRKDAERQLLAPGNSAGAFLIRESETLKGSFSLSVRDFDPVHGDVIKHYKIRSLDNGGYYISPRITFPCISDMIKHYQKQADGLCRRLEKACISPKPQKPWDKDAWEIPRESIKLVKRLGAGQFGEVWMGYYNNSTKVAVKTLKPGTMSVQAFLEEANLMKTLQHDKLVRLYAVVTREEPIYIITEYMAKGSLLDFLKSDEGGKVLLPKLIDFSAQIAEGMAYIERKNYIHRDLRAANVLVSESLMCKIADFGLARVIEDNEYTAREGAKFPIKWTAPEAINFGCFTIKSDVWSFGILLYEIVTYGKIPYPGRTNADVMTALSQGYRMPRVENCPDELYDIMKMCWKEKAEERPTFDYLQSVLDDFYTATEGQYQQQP
The conditions noted are these: read-out: percentage of control activity (POC), Lyn. Put shortly: as §1

Another experiment deals with T14, Met (Homo sapiens, UniProt P08581).
T14 construct: purchased Eurofins Pharma Discovery Services (KinaseProfiler; Cerep BioPrint panel)
The conditions noted are these: read-out: percentage of control activity (POC), Met. Put shortly: as §1

T7 sequence (P06493 whole entry): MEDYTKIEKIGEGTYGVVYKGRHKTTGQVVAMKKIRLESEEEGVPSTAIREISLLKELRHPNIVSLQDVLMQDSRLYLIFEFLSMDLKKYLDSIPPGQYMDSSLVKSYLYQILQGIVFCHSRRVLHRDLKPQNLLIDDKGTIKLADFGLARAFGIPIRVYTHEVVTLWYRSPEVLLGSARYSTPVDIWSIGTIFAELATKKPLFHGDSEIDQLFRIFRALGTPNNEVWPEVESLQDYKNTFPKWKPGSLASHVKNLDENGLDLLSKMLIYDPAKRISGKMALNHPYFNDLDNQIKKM
T7 sequence (P14635 whole entry partner): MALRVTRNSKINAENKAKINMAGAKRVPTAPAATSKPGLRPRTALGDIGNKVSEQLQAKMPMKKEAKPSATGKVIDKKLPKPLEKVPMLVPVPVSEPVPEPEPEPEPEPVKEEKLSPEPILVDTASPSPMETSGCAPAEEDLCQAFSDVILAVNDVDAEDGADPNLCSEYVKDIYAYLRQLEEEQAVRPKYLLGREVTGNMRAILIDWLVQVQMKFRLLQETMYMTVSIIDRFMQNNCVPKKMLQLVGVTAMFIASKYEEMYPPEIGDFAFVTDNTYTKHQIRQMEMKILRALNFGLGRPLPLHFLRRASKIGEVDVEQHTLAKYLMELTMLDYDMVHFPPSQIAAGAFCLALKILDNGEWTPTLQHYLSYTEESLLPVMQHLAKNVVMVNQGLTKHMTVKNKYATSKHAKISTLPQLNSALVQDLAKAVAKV
T3 sequence (Q02750 whole entry): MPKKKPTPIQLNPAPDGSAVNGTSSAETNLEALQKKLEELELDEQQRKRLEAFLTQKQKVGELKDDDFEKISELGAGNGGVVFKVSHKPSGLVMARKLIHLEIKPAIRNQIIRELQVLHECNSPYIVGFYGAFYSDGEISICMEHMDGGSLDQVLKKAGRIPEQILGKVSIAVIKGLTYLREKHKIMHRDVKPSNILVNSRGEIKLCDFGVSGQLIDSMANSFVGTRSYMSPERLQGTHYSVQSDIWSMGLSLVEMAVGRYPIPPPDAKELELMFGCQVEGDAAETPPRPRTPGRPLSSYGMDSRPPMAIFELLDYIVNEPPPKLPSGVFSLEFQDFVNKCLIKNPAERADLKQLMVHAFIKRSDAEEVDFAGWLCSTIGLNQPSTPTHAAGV

`Cn1cc(-c2cccc(-c3nc(C(=O)NC4C5CC6CC4CC(O)(C6)C5)c(N)nc3N)c2)cn1` (stereo not shown) [compound 4]: the remaining activity at 10 µM on JNK1α1 was found to be 92%; at MLK1, 79%; at MEK1, 97%; on ZAP-70, 104%; on Flt1 it was 84%; on PKCθ, 84%. In addition, the remaining activity at 10 µM at CDK1/cyclinB was 64%; on PKCβII, 110%; at CHK1, 94%; at CDK9/cyclin T1 it was 95%; at MKK6, 80%; at IRAK1, 89%. The remaining activity at 10 µM at Lyn turned out to be 66%; at Met, 87%.

Regarding `COc1c(NC(=O)c2ccc(C)c(-c3nnc4c(NCC(C)(C)C)nccn34)c2)cc(C(C)(C)C)cc1NS(C)(=O)=O` [compound 7, reference compound], the remaining activity at 10 µM was found to be 96% at JNK1α1; 104% at MLK1; 107% at MEK1; 104% at ZAP-70; 80% at Flt1; 98% on PKCθ. For the same compound, the remaining activity at 10 µM is 101% at CDK1/cyclinB; 113% at PKCβII; 103% at CHK1; 97% on CDK9/cyclin T1; -3% at MKK6; 95% on IRAK1. For the same compound, the remaining activity at 10 µM on Lyn amounted to 66%; on Met, 109%. On MKK6, this compound returned an inhibition at 10 µM of approximately 100%.

Regarding `Cc1ccc(C(=O)NCC2CC2)cc1-c1ccc2c(c1)NC(=O)C21CCCC1` [compound 3], the remaining activity at 10 µM at JNK1α1 worked out at 96%; at MLK1, 97%; at MEK1 it was 94%; at ZAP-70, 97%; at Flt1 it was 128%; on PKCθ, 97%. The remaining activity at 10 µM was 96% on CDK1/cyclinB; 103% at PKCβII; 100% on CHK1; 85% on CDK9/cyclin T1; -3% at MKK6; 91% on IRAK1. The remaining activity at 10 µM came to 101% on Lyn and 86% on Met. On MKK6, this compound displayed an inhibition at 10 µM of approximately 100%.

As to `CC(C)(C)N1CCC(c2cc(-c3ccc(F)cc3Cl)c3cc[n+]([O-])c(-c4c(Cl)cccc4Cl)c3n2)CC1` [compound 2], the remaining activity at 10 µM at JNK1α1 came to 97%; at MLK1, 99%; on MEK1, 112%; at ZAP-70, 105%; at Flt1, 114%; on PKCθ, 91%. Further, the remaining activity at 10 µM at CDK1/cyclinB came out at 100%; on PKCβII, 117%; at CHK1, 103%; at CDK9/cyclin T1 it was 96%; on MKK6 it was 0%; at IRAK1, 102%. In addition, the remaining activity at 10 µM on Lyn came out at 104%; at Met, 83%. This compound also yielded an inhibition at 10 µM against MKK6 of approximately 100%.

On to `CS(=O)(=O)N1CCN(c2ccc(Nc3ncc(C(N)=O)c(NC4CC4)n3)cc2)CC1` [compound 5], for which the remaining activity at 10 µM at JNK1α1 is 3%; at MLK1 it was -1%; on MEK1, 13%; on ZAP-70, 53%; at Flt1, -3%; at PKCθ, 26%. Besides, the remaining activity at 10 µM at CDK1/cyclinB stood at 71%; at PKCβII it was 80%; at CHK1, 1%; at CDK9/cyclin T1, 56%; at MKK6 it was 32%; at IRAK1, 20%. In addition, the remaining activity at 10 µM on Lyn was 5%; at Met, 45%.
